Literature values, collected in article PMC9775153, “Portability of a Small-Molecule Binding Site between Disordered Proteins” (Biomolecules, 2022).

What was measured:
[1] = test system: Max; set-up: method as in PMID 13679853; details: cited from earlier work
[2] = target: T1, Myc402–412 peptide (Homo sapiens, UniProt P01106); set-up: method as in PMID 19022175; details: 20 µM peptide; cited from earlier work
T1 construct: purchased Genscript; host or cells: solid phase peptide synthesis

[3] = test system: Myc-Max dimerization; set-up: method as in PMID 13679853; details: cited from earlier work

CCc1ccc(/C=C2/SC(=S)NC2=O)cc1 [1RH]
interaction with Max [1]: not to interact | effect on peptide secondary structure (CD) [2]: induced a substantial shift in the peptide’s secondary structure | effect on Myc-Max dimerization [3]: disrupted Myc-Max dimerization
